We go through one substance from patent publication US12514907B2, “Treatment of exercise-induced hypoglycemia in type 1 and insulin using type 2 diabetes” (Xeris Pharmaceuticals, Inc., priority 2017, dated 2026).

Test [1] deals with patients with T1D. In words: CGM metrics after exercise session, randomized 4-period crossover trial of mini-dose glucagon in T1D. The class given is in vivo, human. The conditions noted are these: no statistically significant differences. From the text: Visit Schedule. (1) Screening/Baseline Visit. This visit will be used to assess eligibility and can include determination of VO2 max for fitness evaluation and for the determination of exercise intensity for the study. (2) Randomized Crossover Trial. Each participant will undergo four aerobic exercise sessions (in random order), with different strategies for glucose regulation that include: (i) Control: Fasted exercise, no basal insulin reduction; (ii) Strategy 1: Fasted exercise, basal insulin reduction only (50% reduction in basal rate five minutes before exercise, for the duration of the exercise); (iii) Strategy 2: Fasted exercise, no basal adjustment+pre-exercise glucose tabs (buccal route-40 grams in total); (iv) Strategy 3: Fasted exercise, no basal adjustment+pre-exercise mini-dose glucagon (sc). In all 4 sessions, aerobic exercise will be performed in the fasted state (before a standardized meal) for 45 minutes at ˜50-55% of the participant's predetermined aerobic capacity. The strategies for select sessions will be blinded. The day before each exercise session participants will: Insert new insulin infusion set into abdomen or upper buttock (ensure not in exercising limb); For CGM users, insert a new CGM sensor; For non-CGM users, come into clinic to have a CGM sensor inserted to use with a blinded receiver. For participants using the blinded CGM, the sensor will be removed at 12:00 PM the next day at home (˜24 hours after the end of exercise). The participant will bring the device to the next visit or mail it back to the clinic. Participants will receive a phone call the day after each exercise session to elicit any adverse events. For CGM users, the CGM data will be downloaded at each visit and arrangements made to transmit the data following the last exercise session. The participant's insulin pump will be downloaded at each visit and arrangements made to transmit the data following the last exercise session. Subjects aged 18-<65 years with a duration of T1D ≥2 years, a random C-peptide <0.6 ng/ml, that use CSII (Insulin pump) for at least 6 months, with no plans to discontinue pump use during the study and exercise regularly, ≥30 minutes moderate or more vigorous aerobic activity X≥3 times/week were randomized in a 4-period crossover trial. The control was no basal insulin adjustment, no carbs unless glucose <70 mg/dL (then 20 g dextrose given). Basal Rate Reduction: Basal rate decreased by 50% 5 minutes before start of exercise (basal rate returned to usual rate at end of exercise). Glucose Tabs: Dextrose tabs orally (20 grams) 5 min before start of exercise and 20 grams again at 30 min after start. Mini-Dose Glucagon: Glucagon (150 μg) 5 min before start of exercise (SQ-abdomen). Exercise consisted of moderate intensity aerobic activity (treadmill brisk uphill walking) performed at 50-55% VO2 max for 45 min. Performed in fasted state. Same workload performed at each exercise session. Exercise was terminated if: glucose <70 mg/dL (participant treated for hypo) and/or participant experienced dizziness, pallor and other symptoms of poor perfusion and/or exercise intolerance. Following each exercise session, participants rested for 30 min and then consumed a standardized meal. Meal contained 44-50 grams of carbohydrate (55% of calories from carbohydrate, 20% from protein, and 25% from fat). Insulin is administered as pump bolus 5 min before standardized meal using participants own carbohydrate ratio with correction only if glucose ≥270 mg/dL.

Test [2] concerns patients with T1D. In words: Plasma glucose (YSI analyzer) during exercise/early recovery and post meal, randomized 4-period crossover trial. The format is in vivo, human. From the text: Visit Schedule. (1) Screening/Baseline Visit. This visit will be used to assess eligibility and can include determination of VO2 max for fitness evaluation and for the determination of exercise intensity for the study. (2) Randomized Crossover Trial. Each participant will undergo four aerobic exercise sessions (in random order), with different strategies for glucose regulation that include: (i) Control: Fasted exercise, no basal insulin reduction; (ii) Strategy 1: Fasted exercise, basal insulin reduction only (50% reduction in basal rate five minutes before exercise, for the duration of the exercise); (iii) Strategy 2: Fasted exercise, no basal adjustment+pre-exercise glucose tabs (buccal route-40 grams in total); (iv) Strategy 3: Fasted exercise, no basal adjustment+pre-exercise mini-dose glucagon (sc). In all 4 sessions, aerobic exercise will be performed in the fasted state (before a standardized meal) for 45 minutes at ˜50-55% of the participant's predetermined aerobic capacity. The strategies for select sessions will be blinded. Sample collection. Blood samples collected through a venous catheter with plasma glucose measured by an YSI analyzer. Blood samples will be collected at: Baseline (at −30, −15, −5, 0 min), During exercise (at 5, 10, 15, 25, 35, 45 min), In recovery post exercise (at 50, 55, 60, 75 min), Regularly following a standardized mixed meal for 90 minutes (at 90, 105, 120, 135, and 165 min). Plasma from the collected blood samples will be used to measure the following hormones, proinflammatory markers and metabolites at baseline, during exercise, in recovery post exercise, and regularly following the standardized mixed meal: Insulin, Glucagon, Cortisol, Growth hormone, Catecholamines (epinephrine and norepinephrine), Interleukin-6, tumor necrosis factor-α, Nonesterified fatty acids, β-hydroxybutyrate, and/or Lactate. […]

[3] abbreviates: late recovery period (standard meal to noon the day after exercise session), mean.
The mark [4] stands for this setting: late recovery period (standard meal to noon the day after exercise session), median.
Setting [5] is: overnight (midnight to 6 am the day after exercise session), mean.
The mark [6] stands for this setting: overnight (midnight to 6 am the day after exercise session), median.

glucagon [MDG]: in the test on patients with T1D [1] (setting [3]), the “% of time 70-180 mg/dL-mean” value was found to be 66% and the “% of time <70 mg/dl-mean” value turned out to be 7%. In addition, in the test with patients with T1D [1] (setting [4]), the “Coefficient of Variation-median” value came to 34%; the “Mean Glucose, mg/dL-median” value was found to be 150 mg/dL; the “Nadir Glucose, mg/dL-median” value was found to be 51 mg/dL. In the test on patients with T1D [1] (setting [5]), the “% of time 70-180 mg/dl-mean” value came to 59% and the “% of time <70 mg/dl-mean” value is 4%. In the test with patients with T1D [1] (setting [6]), the “Coefficient of Variation-median” value turned out to be 21%; the “Mean Glucose, mg/dl-median” value was 156 mg/dL; the “Nadir Glucose, mg/dL-median” value is reported as 91 mg/dL. In the test on patients with T1D [1] (overnight (midnight to 6 am the day after exercise session)), the “Occurrence of Hypoglycemia (<70 mg/dL)-%” value is on record as 23%. The post-intervention hyperglycemia result with patients with T1D [2] (compared with ingestion of carbohydrate) was “less post-intervention hyperglycemia than ingestion of carbohydrate”. For the same substance, the reducing exercise-induced hypoglycemia entry in the test on patients with T1D [2] (compared with insulin reduction) is listed as “more effective than insulin reduction”. In the test with patients with T1D [2] (given just before aerobic exercise, people with type 1 diabetes), the “frequency of a drop in glucose concentration” value was “reduces the frequency of a drop in glucose concentration”.
